Test results published in ChEMBL document CHEMBL1201862, “PubChem BioAssay data set” (2004).
Calls of active or inactive are those of the source.

Assays:
[1] = biological target: T1, Heat shock factor protein 1 (Mus musculus, UniProt P38532); test: decrease of HSF1-responsive luciferase luminescence – cell-based, NIH3T3, dose retest, confirmation (AID 2382); format: functional;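 also: NIH3T3 fibroblasts with HSF1-driven luciferase reporter stressed by proteasome inhibitor MG132; luminescence from HSF1-driven luciferase expression after 8 hours of MG132 stress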
T1 sequence (P38532 whole entry): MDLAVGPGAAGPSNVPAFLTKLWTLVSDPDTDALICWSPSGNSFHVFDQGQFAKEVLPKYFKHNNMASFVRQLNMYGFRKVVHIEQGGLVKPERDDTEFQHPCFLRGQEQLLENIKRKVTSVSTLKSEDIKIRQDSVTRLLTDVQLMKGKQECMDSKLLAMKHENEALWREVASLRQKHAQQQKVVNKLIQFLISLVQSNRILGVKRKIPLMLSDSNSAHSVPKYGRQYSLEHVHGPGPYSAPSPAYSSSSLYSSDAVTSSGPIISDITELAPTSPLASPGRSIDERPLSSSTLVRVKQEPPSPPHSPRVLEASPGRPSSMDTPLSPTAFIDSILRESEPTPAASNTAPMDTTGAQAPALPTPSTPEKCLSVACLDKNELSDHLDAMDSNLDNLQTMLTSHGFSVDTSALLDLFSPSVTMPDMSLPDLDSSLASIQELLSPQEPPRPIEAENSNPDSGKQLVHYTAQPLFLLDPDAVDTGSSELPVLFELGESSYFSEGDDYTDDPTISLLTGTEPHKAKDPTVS

[2] = A549 cell cytotoxicity, dose response, cytotoxicity control, plate reader, cherry-pick, antagonist series (AID 743412); format: functional, cell-based
[3] = blockers of bursicon-stimulated LGR2 cAMP reporter – cell-based, HEK293, CRE-luciferase reporter, cherry pick, set 2, dose response (AID 743343); format: functional;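 also: transfected cells were stimulated with diluted bursicon conditioned medium after compound addition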
[4] = blockade of melanocortin 4 receptor signaling – cell-based, plate reader, cherry pick, counter-screen for LGR2 antagonist project, dose response (AID 743444); format: functional;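 also: transfected HEK 293 cells stimulated with alpha-MSH peptide; potency of inhibitors of the alpha-MSH evoked signal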
[5] = non-specific 3'UTR reporter inhibition in Clone20-Shn3RL – cell-based, Renilla luciferase, cherry-picked, counter-screen for Shn3 inhibitor project, dose response (AID 624133); format: functional
[6] = reduction of Shn3 3'UTR-driven luciferase in osteoblasts – cell-based, Clone20 osteoblasts, firefly luciferase, cherry-picked, dose response (AID 624132); format: functional;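 also: firefly luciferase luminescence from reporter carrying the Shn3 3'UTR in osteoblasts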
Protein RecA = biological target: T2, Protein RecA (Mycobacterium tuberculosis, UniProt P9WHJ3); test: Fluorescence Cell-Free Homogeneous Dose Retest to Identify Inhibitors of RecA-Intein Splicing Activity. [Related pubchem assays (depositor defined):AID2097, AID2223, AID489010, AID492950]; format: functional
T2 sequence (P9WHJ3 whole entry): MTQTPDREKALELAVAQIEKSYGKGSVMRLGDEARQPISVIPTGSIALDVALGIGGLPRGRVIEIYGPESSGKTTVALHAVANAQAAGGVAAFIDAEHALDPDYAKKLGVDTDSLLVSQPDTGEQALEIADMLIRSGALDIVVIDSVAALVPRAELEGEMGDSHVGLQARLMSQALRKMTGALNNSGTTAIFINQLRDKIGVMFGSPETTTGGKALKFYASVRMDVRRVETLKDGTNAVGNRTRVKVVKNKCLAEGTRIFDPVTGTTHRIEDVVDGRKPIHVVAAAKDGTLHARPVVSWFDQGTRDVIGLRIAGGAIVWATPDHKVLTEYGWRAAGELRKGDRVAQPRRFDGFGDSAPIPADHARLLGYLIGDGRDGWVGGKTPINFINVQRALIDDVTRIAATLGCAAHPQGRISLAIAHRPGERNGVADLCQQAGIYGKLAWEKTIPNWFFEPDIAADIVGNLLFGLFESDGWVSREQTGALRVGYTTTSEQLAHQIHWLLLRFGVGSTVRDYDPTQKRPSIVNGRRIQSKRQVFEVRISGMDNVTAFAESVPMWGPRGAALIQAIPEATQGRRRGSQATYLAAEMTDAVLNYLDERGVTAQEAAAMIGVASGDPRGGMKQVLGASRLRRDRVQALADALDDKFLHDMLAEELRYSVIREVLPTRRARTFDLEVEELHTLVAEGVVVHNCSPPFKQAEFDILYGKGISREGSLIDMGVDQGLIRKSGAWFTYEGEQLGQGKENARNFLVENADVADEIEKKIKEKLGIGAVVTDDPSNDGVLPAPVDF

[7] = biological target: T3, Histone-lysine N-methyltransferase NSD2 (Homo sapiens, UniProt O96028); format: biochemical
T3 sequence (O96028 whole entry): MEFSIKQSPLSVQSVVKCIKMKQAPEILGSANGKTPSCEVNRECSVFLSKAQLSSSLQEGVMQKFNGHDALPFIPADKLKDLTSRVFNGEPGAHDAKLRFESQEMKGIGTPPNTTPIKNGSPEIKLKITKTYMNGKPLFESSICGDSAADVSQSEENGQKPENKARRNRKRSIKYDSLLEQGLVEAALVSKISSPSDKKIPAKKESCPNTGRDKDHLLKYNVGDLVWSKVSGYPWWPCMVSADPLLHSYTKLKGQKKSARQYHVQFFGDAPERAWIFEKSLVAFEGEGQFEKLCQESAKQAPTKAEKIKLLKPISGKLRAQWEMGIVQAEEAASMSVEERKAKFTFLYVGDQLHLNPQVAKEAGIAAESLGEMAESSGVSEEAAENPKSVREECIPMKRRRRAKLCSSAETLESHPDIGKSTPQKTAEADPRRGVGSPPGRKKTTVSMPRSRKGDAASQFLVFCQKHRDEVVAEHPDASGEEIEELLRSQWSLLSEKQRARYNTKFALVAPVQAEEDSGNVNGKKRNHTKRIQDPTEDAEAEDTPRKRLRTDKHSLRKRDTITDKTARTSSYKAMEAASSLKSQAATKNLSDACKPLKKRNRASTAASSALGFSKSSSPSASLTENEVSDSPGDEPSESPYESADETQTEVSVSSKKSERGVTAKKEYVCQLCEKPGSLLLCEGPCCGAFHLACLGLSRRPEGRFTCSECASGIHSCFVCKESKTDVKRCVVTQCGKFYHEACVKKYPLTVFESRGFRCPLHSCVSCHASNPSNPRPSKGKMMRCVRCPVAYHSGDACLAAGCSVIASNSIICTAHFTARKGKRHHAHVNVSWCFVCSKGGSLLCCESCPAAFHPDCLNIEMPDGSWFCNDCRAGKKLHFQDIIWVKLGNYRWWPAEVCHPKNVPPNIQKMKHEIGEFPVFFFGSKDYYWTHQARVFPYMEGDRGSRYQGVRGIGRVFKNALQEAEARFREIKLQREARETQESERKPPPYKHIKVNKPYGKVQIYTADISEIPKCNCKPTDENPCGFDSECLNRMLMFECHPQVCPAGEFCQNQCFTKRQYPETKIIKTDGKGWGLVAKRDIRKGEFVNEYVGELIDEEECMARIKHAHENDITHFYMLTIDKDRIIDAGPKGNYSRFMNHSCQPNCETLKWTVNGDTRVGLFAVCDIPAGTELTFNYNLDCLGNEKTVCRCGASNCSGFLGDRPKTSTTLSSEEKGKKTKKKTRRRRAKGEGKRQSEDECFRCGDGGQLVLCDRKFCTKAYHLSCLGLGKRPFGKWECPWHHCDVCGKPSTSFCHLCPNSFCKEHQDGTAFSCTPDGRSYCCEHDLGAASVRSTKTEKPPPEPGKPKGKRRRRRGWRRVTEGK

cells [8] = format: functional, cell-based
cells [9] = format: functional, cell-based; remark: listed apart in the source
[10] = biological target: T4, Oxysterols receptor LXR-beta (Homo sapiens, UniProt P55055); format: functional, cell-based;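 also: agonist activity at LXR measured by a cell-based luminescence readout across a dose range, run as a counterscreen for daf-12 agonists; HEK293 cells with Gal4-LXR fusion and GAL4-driven luciferase reporter; potency for activation of Gal4-LXR reporter so compounds are agonists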
T4 sequence (P55055 whole entry): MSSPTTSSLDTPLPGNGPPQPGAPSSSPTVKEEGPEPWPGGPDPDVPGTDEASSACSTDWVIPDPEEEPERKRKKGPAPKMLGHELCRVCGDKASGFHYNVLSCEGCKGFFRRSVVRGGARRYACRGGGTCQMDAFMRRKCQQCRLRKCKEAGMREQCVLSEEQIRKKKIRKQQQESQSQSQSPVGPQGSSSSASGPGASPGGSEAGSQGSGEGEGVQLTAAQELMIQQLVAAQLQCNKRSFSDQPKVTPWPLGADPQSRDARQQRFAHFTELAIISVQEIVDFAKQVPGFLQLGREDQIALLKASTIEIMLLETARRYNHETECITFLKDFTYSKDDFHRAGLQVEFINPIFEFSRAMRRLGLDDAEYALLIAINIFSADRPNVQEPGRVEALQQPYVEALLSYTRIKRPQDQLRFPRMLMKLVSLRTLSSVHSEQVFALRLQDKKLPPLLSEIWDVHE

Protein skinhead-1 = biological target: T5, Protein skinhead-1 (Caenorhabditis elegans, UniProt P34707); format: functional
T5 sequence (P34707 whole entry): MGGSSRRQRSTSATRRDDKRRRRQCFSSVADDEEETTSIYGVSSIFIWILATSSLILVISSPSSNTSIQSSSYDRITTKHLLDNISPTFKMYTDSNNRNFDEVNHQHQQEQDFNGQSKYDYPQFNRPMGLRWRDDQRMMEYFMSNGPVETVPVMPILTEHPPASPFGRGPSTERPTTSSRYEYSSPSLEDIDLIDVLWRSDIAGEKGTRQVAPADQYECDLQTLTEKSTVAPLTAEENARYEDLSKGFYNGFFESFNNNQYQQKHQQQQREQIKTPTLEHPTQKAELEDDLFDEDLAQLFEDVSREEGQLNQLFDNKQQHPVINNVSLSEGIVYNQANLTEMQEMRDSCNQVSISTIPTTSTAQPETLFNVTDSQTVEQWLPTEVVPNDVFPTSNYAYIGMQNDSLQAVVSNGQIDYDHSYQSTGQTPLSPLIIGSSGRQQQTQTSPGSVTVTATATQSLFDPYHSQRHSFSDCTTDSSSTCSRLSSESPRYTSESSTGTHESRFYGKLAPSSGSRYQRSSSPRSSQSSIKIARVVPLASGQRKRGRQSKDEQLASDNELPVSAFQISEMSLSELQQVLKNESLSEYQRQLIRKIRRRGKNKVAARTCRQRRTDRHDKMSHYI

[11] = blockers of HIV-1 ZM109 envelope-driven cell-cell fusion – HeLa effector, CEM target cells, luciferase, cherry-pick, dose response (AID 652058); format: functional, cell-based;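 also: luciferase signal from HIV-1 Env mediated cell-cell fusion of effector and target cells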
HEK293 = test: EBV LMP1 TES2 canonical NF-kB signalling blockers – cell-based, HEK293, luciferase, cherry-pick, dose response (AID 588343); format: functional; conditions: Homo sapiens
[12] = blockers of HIV-1 envelope-mediated cell-cell fusion – cherry-pick, dose response (AID 652057); format: functional, cell-based
[13] = off-target signal loss in HeLa-CEM21 co-culture – HeLa F-luc CTL cells, cherry-picked, counter-screen for HIV-1 Env fusion inhibitor project, dose response (AID 652040); format: functional, cell-based;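 also: potency for signal decrease marking cytotoxic or nonspecific inhibition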
[14] = HIV-1 AD8 envelope cell-cell fusion blockers – cherry-pick, dose response (AID 652062); format: functional, cell-based;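 also: luciferase signal from cell-cell fusion driven by HIV-1 clade B AD8 Env; potency is for inhibitors of fusion seen as a drop in luminescence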

## O=C(O)c1cccc(COc2ccc(CO)cc2Cl)c1
[1]
  EC50: 0.375 µM (active)
[2]
  AC50: > 52 µM (inactive)
[3]
  AC50: 0.296 µM (active)
[4]
  AC50: 0.274 µM (active)
[5]
  AC50: 35 µM (active)
[6]
  AC50: 1.04 µM (active)

## CCCCNC(=O)c1c(N)n(Cc2ccc3c(c2)OCO3)c2nc3ccccc3nc12
Protein RecA
  EC50: 56.3 µM (active)
[7]
  AC50: 19.4 µM (active)

## CCOC(=O)C(NCCc1ccccc1F)(NC(=O)CC)C(F)(F)F (centres undefined)
Cells [8]
  EC50: > 29.9 µM (inactive)
Cells [9]
  IC50: > 29.9 µM (inactive)

## N=C1/C(=C/c2ccc(OCc3ccccc3F)cc2)C(=O)N=C2SC(CC(=O)N3CCOCC3)=NN12
[10]
  EC50: > 67.5 µM (inactive)

## Brc1ccc(-c2noc(-c3ccccc3)n2)o1
[10]
  EC50: > 67.6 µM (inactive)
Protein skinhead-1
  IC50: > 100 µM (inactive)

## Cc1cc(C(=O)CSc2cccc[n+]2[O-])c(C)n1-c1ccccc1
[10]
  EC50: > 67.5 µM (inactive)

## C=CCNC1=NN=C(c2cc(C)n(CCOC)c2C)CS1
[11]
  AC50: 8.09 µM (active)
HEK293
  AC50: 2.08 µM (active)
[12]
  AC50: 1.56 µM (active)
[13]
  AC50: 3.9 µM (active)
[14]
  AC50: 4.19 µM (active)
